Experimental data taken from patent US10617710B2, “Agent for sedating response to external stimulation in skin and method for sedating that response” (Shiseido Company, Ltd, priority 2014, dated 2020).

Test system: CD39 gene expression
Test: CD39 expression promoting effect in human Langerhans cell-like cells (THP-1) under dexamethasone stress, RT-PCR
Assay type: cell-based
Details: THP-1 cells, 10 nM dexamethasone added, versus dexamethasone non-addition group
Description: THP-1 cells (American Type Culture Collection, VA, USA) were used as a substitute for human Langerhans cells. Approximately 200,000 THP-1 cells were cultured to confluence in RPMI1640 medium containing 10% FBS. Following culturing, stress hormone in the form of 10 nM dexamethasone was added followed by the respective addition of 0.1% polyoxyethylene (POE) 14/polyoxypropylene (POP) 7 random copolymer dimethyl ether (A), 0.01% of a 2% aqueous solution of sodium carboxymethyl-beta glucan (CM-Glucan, Mibelle Biochemistry) (B) and 0.1% rosewater (Bulgaria Rose Water, Toyotama International) (C). Moreover, a three-type mixture group (ABC) was added that incorporated one-third each of all three components. After culturing for 24 hours after addition, RNA was extracted using Isogen (Wako Pure Chemical Industries) followed by synthesis of cDNA using Superscript III and random primers (Invitrogen). RT-PCR was carried out with the Prism 7900HT (ABI) using SYBR Green (Invitrogen) and the primers indicated below.
During this RT-PCR, ribosomal protein S9 was used as normalization factor.

CD39 gene expression level (RT-PCR, normalized to ribosomal protein S9): expression of CD39 decreased
SMILES: C[C@@H]1C[C@H]2[C@@H]3CCC4=CC(=O)C=C[C@]4(C)[C@@]3(F)[C@@H](O)C[C@]2(C)[C@@]1(O)C(=O)CO [dexamethasone]
